{
  "source": "patent US7135464B2",
  "about": "“Method of administering decitabine” (SuperGen, Inc., priority 2002, dated 2006)",
  "key": {"[1]": {"details": "cited from earlier work"}, "[2]": {"details": "aqueous solution"}, "[3]": {"details": "aqueous solution, cited from earlier work"}},
  "note": "“And” between values parts separate entries of the source, which are not always exact repeats. Equal entries are not always repeated. Where two headings read alike, the source gives them in different places.",
  "data": [
    {"smiles": "Nc1ncn([C@H]2C[C@H](O)[C@@H](CO)O2)c(=O)n1", "note": "[decitabine, 5-aza-2′-deoxycytidine]", "values": [
      {"measurement": "decitabine concentration in patients", "setting": "[1]; 100 mg/m^2 as a 3-hour infusion", "result": "about 0.4 μg/ml and ~2 μM"},
      {"measurement": "total urinary excretion, % of the administered dose", "setting": "[1]; humans", "result": "less than 1%"},
      {"measurement": "volume of distribution", "setting": "[1]; humans", "result": "about 4.6 L/kg"},
      {"measurement": "decitabine remaining in active form", "setting": "[2]; storage at 4° C. for 6 days", "result": "less than 50%"},
      {"measurement": "decitabine remaining in active form", "setting": "[2]; storage at 25° C. for 1 day", "result": "less than 50%"},
      {"measurement": "decrease of concentration of decitabine", "setting": "[3]; after 4 hours at 25° C.", "result": "about 10%"},
      {"measurement": "decrease of concentration of decitabine", "setting": "[3]; after 24 hours at 4° C.", "result": "about 10%"}
    ]}
  ]
}
